Experimental data taken from article PMC12638379, “An innovative approach to development of new pyrazolylquinolin-2-one hybrids as dual EGFR and BRAF^V600E inhibitors” (Molecular Diversity, 2025).
Like-named read-outs stand apart in the source and are kept apart here.

What was measured:
[1] = MTT cytotoxicity on normal cell line WI-38; details: human, WI-38 normal cells, % viability
normal cell line WI-38 = assay: MTT cytotoxicity on normal cell line WI-38
NCI 60 cancer cell lines = assay: NCI anticancer screening over a panel of 60 cancer cells, single concentration 10 µM; type: cell-based, human; details: Homo sapiens, read-out: % Growth Inhibition (GI %)
How it was run: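 Run under the NCI Compound Evaluation Branch protocol, each compound was tested once at 10 µM. The panel comprised 60 cancer cell lines of diverse tissue origin, including leukemia, lung, colon, CNS, renal, ovarian, breast and prostate.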

BRAF^V600E = BRAF^V600E (Homo sapiens, UniProt P15056, V600E); assay: BRAF^V600E inhibitory assay (B-Raf (V600E) Kinase Assay); type: biochemical; details: read-out: BRAF^V600E inhibition IC50 ± SEM
Sequence of BRAF^V600E (P15056 whole entry V600E): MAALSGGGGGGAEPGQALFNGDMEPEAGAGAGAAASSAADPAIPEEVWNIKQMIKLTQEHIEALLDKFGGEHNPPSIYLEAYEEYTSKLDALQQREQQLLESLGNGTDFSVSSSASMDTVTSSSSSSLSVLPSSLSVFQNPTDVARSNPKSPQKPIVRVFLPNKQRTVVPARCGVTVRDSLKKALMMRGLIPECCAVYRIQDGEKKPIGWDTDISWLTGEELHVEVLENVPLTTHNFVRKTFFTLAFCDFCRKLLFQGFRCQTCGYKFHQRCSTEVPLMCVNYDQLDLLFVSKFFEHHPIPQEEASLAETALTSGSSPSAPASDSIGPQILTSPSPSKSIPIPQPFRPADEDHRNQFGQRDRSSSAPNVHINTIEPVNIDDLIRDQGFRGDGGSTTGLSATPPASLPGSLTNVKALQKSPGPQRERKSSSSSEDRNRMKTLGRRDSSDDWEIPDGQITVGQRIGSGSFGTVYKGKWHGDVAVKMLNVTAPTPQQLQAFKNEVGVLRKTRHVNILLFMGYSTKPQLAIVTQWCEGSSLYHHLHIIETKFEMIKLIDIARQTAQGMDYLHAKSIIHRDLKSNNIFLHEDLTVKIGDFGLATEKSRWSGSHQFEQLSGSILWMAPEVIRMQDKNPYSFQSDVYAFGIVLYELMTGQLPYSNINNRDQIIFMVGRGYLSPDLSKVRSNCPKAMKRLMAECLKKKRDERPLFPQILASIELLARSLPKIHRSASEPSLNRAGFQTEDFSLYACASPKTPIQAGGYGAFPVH

[2] = tested on: breast cancer (T47D) cell line; assay: MTT antiproliferative assay, T-47D
How it was run: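 HOP-92, MOLT-4 and T-47D cells in DMEM/10% FBS/insulin exposed 24 h to serial 10-fold dilutions […]; MTT added 2–4 h, absorbance at 570 nm with 690 nm background subtraction. Percent viable cells gives IC50; GI50 is the average IC50 across the three lines.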

[3] = tested on: lung cancer (HOP-92) cell line; assay: MTT antiproliferative assay, HOP-92; type: cell-based, human
Experimental: […]. […] See Appendix B.
After 24 h of culture incubation and supernatants discarded.

EGFR = biological target: T1, EGFR (Homo sapiens, UniProt P00533); assay: EGFR inhibitory assay; type: biochemical; details: for %inh: EGFR, unit not given
T1 construct: EGFR cytoplasmic domain (EGFR-CD, amino acids 645–1186); His6 (N); made in house; host or cells: Sf-9 insect cells (baculovirus)
T1 sequence (P00533 669-1210): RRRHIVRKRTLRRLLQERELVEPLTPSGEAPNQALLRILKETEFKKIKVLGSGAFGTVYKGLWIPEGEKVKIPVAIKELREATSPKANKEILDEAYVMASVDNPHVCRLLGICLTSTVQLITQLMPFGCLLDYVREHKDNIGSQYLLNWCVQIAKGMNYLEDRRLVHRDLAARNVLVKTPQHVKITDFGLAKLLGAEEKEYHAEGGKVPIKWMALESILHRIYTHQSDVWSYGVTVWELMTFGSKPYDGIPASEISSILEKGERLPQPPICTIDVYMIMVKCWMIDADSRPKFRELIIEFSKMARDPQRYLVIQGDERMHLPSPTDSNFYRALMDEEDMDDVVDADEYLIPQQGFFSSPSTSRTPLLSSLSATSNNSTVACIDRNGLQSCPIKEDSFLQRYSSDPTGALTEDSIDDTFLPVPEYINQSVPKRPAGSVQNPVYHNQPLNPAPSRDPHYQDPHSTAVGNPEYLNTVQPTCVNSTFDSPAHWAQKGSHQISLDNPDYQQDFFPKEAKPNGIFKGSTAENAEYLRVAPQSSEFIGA

SMILES: C/C(=N\Nc1ccc(C(=O)O)cc1)c1cnn(-c2cc(=O)[nH]c3ccccc23)c1C [Compound 4f, (E)-4-(2-(1-(5-methyl-1-(2-oxo-1,2-dihydroquinolin-4-yl)-1H-pyrazol-4-yl)ethylidene) hydrazineyl)benzoic acid]
- viability at 24 h, 0.4 µM ([1]; WI38, 0.4uM (log conc. -0.41)): 80%
- viability at 24 h, 1.6 µM ([1]; WI38, 1.6uM (log conc. 0.19)): 74.5%
- viability at 24 h, 6.3 µM ([1]; WI38, 6.3uM (log conc. 0.8)): 65.4%
- viability at 24 h, 25 µM ([1]; WI38, 25uM (log conc. 1.4)): 54.9%
- viability at 24 h, 100 µM ([1]; WI38, 100uM (log conc. 2)): 41.6%
- IC50 (normal cell line WI-38; Homo sapiens, read-out: Antiproliferative activity IC50 ± SEM): 42.1 ± 1.68 µM
- % viability (normal cell line WI-38; WI38, 0.4uM (log conc. -0.41), listed as ws6, 0.4 µM): 79.9762%
- % viability (normal cell line WI-38; WI38, 1.6uM (log conc. 0.19), listed as ws6, 1.6 µM): 74.5098%
- % viability (normal cell line WI-38; WI38, 6.3uM (log conc. 0.8), listed as ws6, 6.3 µM): 65.3595%
- % viability (normal cell line WI-38; WI38, 100uM (log conc. 2), listed as ws6, 100 µM): 41.5924%
- inhibition at 10 µM (NCI 60 cancer cell lines; 786-0, Renal cancer 786-0, 10 μM): < 5%
- inhibition at 10 µM (NCI 60 cancer cell lines; A498, Renal cancer A498, 10 μM): < 5%
- inhibition at 10 µM (NCI 60 cancer cell lines; A549, Non-small cell lung cancer A549/ATCC, 10 μM): < 5%
- inhibition at 10 µM (NCI 60 cancer cell lines; ACHN, Renal cancer ACHN, 10 μM): 5.83%
- inhibition at 10 µM (NCI 60 cancer cell lines; BT-549, Breast cancer BT-549, 10 μM): < 5%
- inhibition at 10 µM (NCI 60 cancer cell lines; CAKI-1, Renal cancer CAKI-1, 10 μM): 16.1%
- inhibition at 10 µM (NCI 60 cancer cell lines; CCRF-CEM, Leukemia CCRF-CEM, 10 μM): < 5%
- inhibition at 10 µM (NCI 60 cancer cell lines; COLO 205, Colon cancer COLO 205, 10 μM): < 5%
- inhibition at 10 µM (NCI 60 cancer cell lines; DU-145, Prostate cancer DU-145, 10 μM): < 5%
- inhibition at 10 µM (NCI 60 cancer cell lines; EKVX, Non-small cell lung cancer EKVX, 10 μM): < 5%
- inhibition at 10 µM (NCI 60 cancer cell lines; HCC 2998, Colon cancer HCC-2998, 10 μM): < 5%
- inhibition at 10 µM (NCI 60 cancer cell lines; HCT-15, Colon cancer HCT-15, 10 μM): < 5%
- inhibition at 10 µM (NCI 60 cancer cell lines; HCT-116, Colon cancer HCT-116, 10 μM): < 5%
- inhibition at 10 µM (NCI 60 cancer cell lines; HL-60, Leukemia HL-60(TB), 10 μM): < 5%
- inhibition at 10 µM (NCI 60 cancer cell lines; HOP-62, Non-small cell lung cancer HOP-62, 10 μM): 8.55%
- inhibition at 10 µM (NCI 60 cancer cell lines; HOP-92, Non-small cell lung cancer HOP-92, 10 μM): 79.8%
- inhibition at 10 µM (NCI 60 cancer cell lines; HT-29, Colon cancer HT29, 10 μM): < 5%
- inhibition at 10 µM (NCI 60 cancer cell lines; Hs-578T, Breast cancer HS 578T, 10 μM): 12.3%
- inhibition at 10 µM (NCI 60 cancer cell lines; IGROV-1, Ovarian cancer IGROV1, 10 μM): < 5%
- inhibition at 10 µM (NCI 60 cancer cell lines; K562, Leukemia K-562, 10 μM): < 5%
- inhibition at 10 µM (NCI 60 cancer cell lines; KM12, Colon cancer KM12, 10 μM): < 5%
- inhibition at 10 µM (NCI 60 cancer cell lines; LOX IMVI, Melanoma LOX IMVI, 10 μM): 10.8%
- inhibition at 10 µM (NCI 60 cancer cell lines; Leukemia SR, 10 μM): 12.2%
- inhibition at 10 µM (NCI 60 cancer cell lines; MCF7, Breast cancer MCF7, 10 μM): 5.99%
- inhibition at 10 µM (NCI 60 cancer cell lines; MDA-MB-231, Breast cancer MDA-MB-231/ATCC, 10 μM): 12.5%
- inhibition at 10 µM (NCI 60 cancer cell lines; MDA-MB-435, Melanoma MDA-MB-435, 10 μM): < 5%
- inhibition at 10 µM (NCI 60 cancer cell lines; MDA-MB-468, Breast cancer MDA-MB-468, 10 μM): < 5%
- inhibition at 10 µM (NCI 60 cancer cell lines; MOLT-4, Leukemia MOLT-4, 10 μM): < 5%
- inhibition at 10 µM (NCI 60 cancer cell lines; Melanoma M14, 10 μM): 8.95%
- inhibition at 10 µM (NCI 60 cancer cell lines; Melanoma MALM-3M, 10 μM): 9.22%
- inhibition at 10 µM (NCI 60 cancer cell lines; NCI-H23, Non-small cell lung cancer NCI-H23, 10 μM): 7.19%
- inhibition at 10 µM (NCI 60 cancer cell lines; NCI-H226, Non-small cell lung cancer NCI-H226, 10 μM): 10.9%
- inhibition at 10 µM (NCI 60 cancer cell lines; NCI-H322M, Non-small cell lung cancer NCI-H322M, 10 μM): < 5%
- inhibition at 10 µM (NCI 60 cancer cell lines; NCI-H460, Non-small cell lung cancer NCI-H460, 10 μM): < 5%
- inhibition at 10 µM (NCI 60 cancer cell lines; NCI-H522, Non-small cell lung cancer NCI-H522, 10 μM): 13.9%
- inhibition at 10 µM (NCI 60 cancer cell lines; NCI/ADR-RES, Ovarian cancer NCI/ADR-RES, 10 μM): < 5%
- inhibition at 10 µM (NCI 60 cancer cell lines; OVCAR-3, Ovarian cancer OVCAR-3, 10 μM): < 5%
- inhibition at 10 µM (NCI 60 cancer cell lines; OVCAR-4, Ovarian cancer OVCAR-4, 10 μM): 7.33%
- inhibition at 10 µM (NCI 60 cancer cell lines; OVCAR-5, Ovarian cancer OVCAR-5, 10 μM): < 5%
- inhibition at 10 µM (NCI 60 cancer cell lines; OVCAR-8, Ovarian cancer OVCAR-8, 10 μM): < 5%
- inhibition at 10 µM (NCI 60 cancer cell lines; Prostate cancer PC-3, 10 μM): 12.4%
- inhibition at 10 µM (NCI 60 cancer cell lines; RPMI-8226, Leukemia RPMI-8226, 10 μM): < 5%
- inhibition at 10 µM (NCI 60 cancer cell lines; RXF 393, Renal cancer RXF 393, 10 μM): 11.1%
- inhibition at 10 µM (NCI 60 cancer cell lines; SF-268, CNS Cancer SF-268, 10 μM): < 5%
- inhibition at 10 µM (NCI 60 cancer cell lines; SF-295, CNS Cancer SF-295, 10 μM): < 5%
- inhibition at 10 µM (NCI 60 cancer cell lines; SF-539, CNS Cancer SF-539, 10 μM): < 5%
- inhibition at 10 µM (NCI 60 cancer cell lines; SK-MEL-2, Melanoma SK-MEL-2, 10 μM): < 5%
- inhibition at 10 µM (NCI 60 cancer cell lines; SK-MEL-5, Melanoma SK-MEL-5, 10 μM): < 5%
- inhibition at 10 µM (NCI 60 cancer cell lines; SK-MEL-28, Melanoma SK-MEL-28, 10 μM): < 5%
- inhibition at 10 µM (NCI 60 cancer cell lines; SK-OV-3, Ovarian cancer SK-OV-3, 10 μM): < 5%
- inhibition at 10 µM (NCI 60 cancer cell lines; SN12C, Renal cancer SN12C, 10 μM): < 5%
- inhibition at 10 µM (NCI 60 cancer cell lines; SNB-19, CNS Cancer SNB-19, 10 μM): < 5%
- inhibition at 10 µM (NCI 60 cancer cell lines; SNB-75, CNS Cancer SNB-75, 10 μM): 12.9%
- inhibition at 10 µM (NCI 60 cancer cell lines; SW-620, Colon cancer SW-620, 10 μM): < 5%
- inhibition at 10 µM (NCI 60 cancer cell lines; T47D, Breast cancer T-47D, 10 μM): < 5%
- inhibition at 10 µM (NCI 60 cancer cell lines; TK-10, Renal cancer TK-10, 10 μM): < 5%
- inhibition at 10 µM (NCI 60 cancer cell lines; U-251, CNS Cancer U251, 10 μM): < 5%
- inhibition at 10 µM (NCI 60 cancer cell lines; UACC-62, Melanoma UACC-62, 10 μM): 6.43%
- inhibition at 10 µM (NCI 60 cancer cell lines; UACC-257, Melanoma UACC-257, 10 μM): < 5%
- inhibition at 10 µM (NCI 60 cancer cell lines; UO-31, Renal cancer UO-31, 10 μM): 45.2%
- IC50 (BRAF^V600E): 410 ± 16 nM
- viability at 0.4 µM ([2]; Homo sapiens, T47D, T-47D, MTT, 0.4uM): 78.6%
- viability at 1.6 µM ([2]; Homo sapiens, T47D, T-47D, MTT, 1.6uM): 72.1%
- viability at 6.3 µM ([2]; Homo sapiens, T47D, T-47D, MTT, 6.3uM): 61.4%
- viability at 25 µM ([2]; Homo sapiens, T47D, T-47D, MTT, 25uM): 50.1%
- viability at 100 µM ([2]; Homo sapiens, T47D, T-47D, MTT, 100uM): 41.1%
- IC50 ([2]; Homo sapiens, T47D, read-out: Antiproliferative activity IC50 ± SEM, T-47D, MTT): 28.6 ± 0.99 µM
- % viability ([2]; T-47D, MTT, 1.6uM, listed as ws6, 1.6 µM): 72.1271%
- % viability ([2]; T-47D, MTT, 6.3uM, listed as ws6, 6.3 µM): 61.3692%
- % viability ([2]; T-47D, MTT, 100uM, listed as ws6, 100 µM): 41.0758%
- % viability ([3]; HOP-92, MTT, 0.4uM, listed as ws6, 0.4 µM): 83.3554%
- % viability ([3]; HOP-92, MTT, 1.6uM, listed as ws6, 1.6 µM): 74.4032%
- % viability ([3]; HOP-92, MTT, 6.3uM, listed as ws6, 6.3 µM): 64.3236%
- % viability ([3]; HOP-92, MTT, 100uM, listed as ws6, 100 µM): 35.3448%
- viability at 0.4 µM ([3]; Homo sapiens, HOP-92, HOP-92, MTT, 0.4uM, read-out: % viability): 83.4%
- viability at 1.6 µM ([3]; Homo sapiens, HOP-92, HOP-92, MTT, 1.6uM, read-out: % viability): 74.4%
- viability at 6.3 µM ([3]; Homo sapiens, HOP-92, HOP-92, MTT, 6.3uM, read-out: % viability): 64.3%
- viability at 25 µM ([3]; Homo sapiens, HOP-92, HOP-92, MTT, 25uM, read-out: % viability): 51.8%
- viability at 100 µM ([3]; Homo sapiens, HOP-92, HOP-92, MTT, 100uM, read-out: % viability): 35.3%
- IC50 ([3]; Homo sapiens, HOP-92, MTT, read-out: Antiproliferative activity IC50 ± SEM, HOP-92): 24.9 ± 1.9 µM
- %inh (EGFR; conc 0.01 (log -2)): 10.6%
- %inh (EGFR; conc 0.1 (log -1)): 26%
- %inh (EGFR; conc 1 (log 0)): 61.8%
- %inh (EGFR; conc 10 (log 1)): 80.6%
- %inh (EGFR; conc 100 (log 2)): 92.1%
- IC50 (EGFR; read-out: EGFR inhibition IC50 ± SEM): 640 ± 23 nM
